Assay: molar heat capacity at constant pressure; xn = mol fraction of the nth substance listed
Conditions: 101.3 kPa, Liquid, Small sample (50 mg) DSC

CCC(C)(C)O [2-methylbutan-2-ol] + CCCCCCC
Conditions	molar heat capacity at constant pressure [J/K/mol]
345.14 K, x1 = 0.0249	244.12
345.14 K, x1 = 0.0494	246.22
345.14 K, x1 = 0.1	253.28
345.14 K, x1 = 0.1547	260.94
345.14 K, x1 = 0.1999	266.5
345.14 K, x1 = 0.2993	275.63
345.14 K, x1 = 0.4051	282.19
345.14 K, x1 = 0.4986	286.41
345.14 K, x1 = 0.5981	289.46
345.14 K, x1 = 0.7015	291.51
345.14 K, x1 = 0.8023	291.94
345.14 K, x1 = 0.9139	291.66
345.14 K, x1 = 0.9609	290.76
346.15 K, x1 = 0.0061	244.11
346.15 K, x1 = 0.0249	244.51
346.15 K, x1 = 0.0494	246.51
346.15 K, x1 = 0.1	253.41
346.15 K, x1 = 0.1547	261
346.15 K, x1 = 0.1999	266.61
346.15 K, x1 = 0.2993	275.72
346.15 K, x1 = 0.4051	282.35
346.15 K, x1 = 0.4986	286.63
346.15 K, x1 = 0.5981	289.78
346.15 K, x1 = 0.7015	291.88
346.15 K, x1 = 0.8023	292.49
346.15 K, x1 = 0.9139	292.09
346.15 K, x1 = 0.9609	291.29
347.13 K, x1 = 0.0494	246.82
347.15 K, x1 = 0.9139	292.63
347.16 K, x1 = 0.0061	244.48
347.16 K, x1 = 0.0249	244.81
347.16 K, x1 = 0.1	253.4
347.16 K, x1 = 0.1547	261.01
347.16 K, x1 = 0.1999	266.57
347.16 K, x1 = 0.2993	275.89
347.16 K, x1 = 0.4051	282.48
347.16 K, x1 = 0.4986	286.83
347.16 K, x1 = 0.5981	290.05
347.16 K, x1 = 0.7015	292.26
347.16 K, x1 = 0.8023	292.88
347.16 K, x1 = 0.9609	291.82
348.14 K, x1 = 0.0061	244.95
348.14 K, x1 = 0.0249	245.23
348.14 K, x1 = 0.0494	247.05
348.14 K, x1 = 0.1	253.5
348.14 K, x1 = 0.2993	275.95
348.14 K, x1 = 0.4051	282.77
348.14 K, x1 = 0.4986	287.07
348.14 K, x1 = 0.5981	290.42
348.14 K, x1 = 0.7015	292.68
348.14 K, x1 = 0.8023	293.3
348.14 K, x1 = 0.9139	293.11
348.14 K, x1 = 0.9609	292.28
348.16 K, x1 = 0.1547	261.02
348.16 K, x1 = 0.1999	266.63
349.15 K, x1 = 0.0061	245.31
349.15 K, x1 = 0.0249	245.69
349.15 K, x1 = 0.0494	247.42
349.15 K, x1 = 0.1	253.6
349.15 K, x1 = 0.1547	261.07
349.15 K, x1 = 0.1999	266.66
349.15 K, x1 = 0.2993	276.06
349.15 K, x1 = 0.4051	282.91
349.15 K, x1 = 0.4986	287.38
349.15 K, x1 = 0.5981	290.79
349.15 K, x1 = 0.7015	293.13
349.15 K, x1 = 0.8023	293.78
349.15 K, x1 = 0.9139	293.7
349.15 K, x1 = 0.9609	292.9
350.15 K, x1 = 0.0061	245.7
350.15 K, x1 = 0.0494	247.73
350.15 K, x1 = 0.1999	266.71
350.15 K, x1 = 0.4986	287.48
350.15 K, x1 = 0.5981	290.98
350.15 K, x1 = 0.7015	293.35
350.15 K, x1 = 0.8023	294.18
350.15 K, x1 = 0.9139	294.04
350.15 K, x1 = 0.9609	293.31
350.16 K, x1 = 0.0249	245.9
350.16 K, x1 = 0.1	253.7
350.16 K, x1 = 0.1547	261.07
350.16 K, x1 = 0.2993	276.06
350.16 K, x1 = 0.4051	283.01
351.14 K, x1 = 0.0061	246.16
351.14 K, x1 = 0.0249	246.29
351.14 K, x1 = 0.0494	247.89
351.14 K, x1 = 0.1	253.68
351.14 K, x1 = 0.1547	261.02
351.14 K, x1 = 0.1999	266.6
351.14 K, x1 = 0.4051	283
351.14 K, x1 = 0.4986	287.61
351.14 K, x1 = 0.5981	291.23
351.14 K, x1 = 0.7015	293.67
351.14 K, x1 = 0.8023	294.44
351.14 K, x1 = 0.9139	294.48
351.14 K, x1 = 0.9609	293.76
351.16 K, x1 = 0.2993	276.1
352.15 K, x1 = 0.0061	246.53
352.15 K, x1 = 0.0249	246.7
352.15 K, x1 = 0.0494	248.24
352.15 K, x1 = 0.1	253.93
352.15 K, x1 = 0.1547	261.06
352.15 K, x1 = 0.1999	266.66
352.15 K, x1 = 0.2993	276.22
352.15 K, x1 = 0.4051	283.15
352.15 K, x1 = 0.4986	287.82
352.15 K, x1 = 0.5981	291.44
352.15 K, x1 = 0.7015	293.88
352.15 K, x1 = 0.8023	294.82
352.15 K, x1 = 0.9139	294.82
352.15 K, x1 = 0.9609	294.14
353.15 K, x1 = 0.0061	246.79
353.15 K, x1 = 0.0249	247.03
353.15 K, x1 = 0.0494	248.53
353.15 K, x1 = 0.1	253.91
353.15 K, x1 = 0.1547	260.99
353.15 K, x1 = 0.1999	266.57
353.15 K, x1 = 0.2993	276.2
353.15 K, x1 = 0.4051	283.18
353.15 K, x1 = 0.4986	287.86
353.15 K, x1 = 0.5981	291.63
353.15 K, x1 = 0.7015	294.17
353.15 K, x1 = 0.8023	295.16
353.15 K, x1 = 0.9139	295.27
353.15 K, x1 = 0.9609	294.55
